Values quoted from earlier work in patent EP3850074B1, “BENEFIT AGENT DELIVERY PARTICLES” (Unilever Global IP Ltd, priority 2018, dated 2020).

Settings: at 25°C and at atmospheric pressure

SMILES: Nc1nc(N)nc(N)n1 [melamine, 2,4,6-triamino-1,3,5-triazine]
- solubility in distilled water: about 0.3 g/L
